The values below are quoted from earlier work in patent US20090182054A1, “Topical compositions containing solubilized dicarboxylic acids” (priority 2008, published 2009).

For data set [1] the following is noted: water, 25 deg C.
In data set [2] the test system is inflammatory papule lesions and erythema. To be noted: topical application.

For `O=C(O)CCCCCCCC(=O)O` [azelaic acid, Azelaic acid], the solubility in data set [1] was 0.24 gram per 100 gram of water. The “inflammatory papule lesions and erythema” value in data set [2] is listed as “significantly reduce”.
